Data: the NIST ThermoML archive (doi:10.1021/acs.jced.7b00106)

Settings: Hot wire method

FC(F)(F)/C=C/Cl [(E)-1-chloro-3,3,3-trifluoroprop-1-ene]
Settings | thermal conductivity [W/m/K]
302.53 K, 136 kPa, Gas | 0.01102
302.53 K, 16444 kPa, Liquid | 0.0897
302.53 K, 47194 kPa, Liquid | 0.1006
302.55 K, 122 kPa, Gas | 0.01105
302.55 K, 36223 kPa, Liquid | 0.09702
302.57 K, 8074 kPa, Liquid | 0.08557
302.59 K, 25791 kPa, Liquid | 0.09335
302.6 K, 16014 kPa, Liquid | 0.08919
302.61 K, 11882 kPa, Liquid | 0.08715
302.61 K, 30546 kPa, Liquid | 0.0947
302.62 K, 142 kPa, Gas | 0.01123
302.62 K, 7818 kPa, Liquid | 0.08552
302.64 K, 122 kPa, Gas | 0.01131
302.64 K, 131 kPa, Gas | 0.01128
302.64 K, 139 kPa, Gas | 0.01119
302.65 K, 7853 kPa, Liquid | 0.08571
302.65 K, 25491 kPa, Liquid | 0.09284
302.66 K, 20510 kPa, Liquid | 0.09077
302.68 K, 16449 kPa, Liquid | 0.08922
302.7 K, 373 kPa, Liquid | 0.08122
302.72 K, 4080 kPa, Liquid | 0.08356
302.72 K, 8075 kPa, Liquid | 0.08531
302.75 K, 11886 kPa, Liquid | 0.08659
302.75 K, 16005 kPa, Liquid | 0.08846
302.75 K, 62930 kPa, Liquid | 0.106
302.76 K, 303 kPa, Liquid | 0.08187
302.76 K, 65463 kPa, Liquid | 0.1068
302.78 K, 7822 kPa, Liquid | 0.08491
302.79 K, 56432 kPa, Liquid | 0.1045
302.81 K, 7852 kPa, Liquid | 0.08507
302.82 K, 48051 kPa, Liquid | 0.1011
302.83 K, 48410 kPa, Liquid | 0.1013
302.85 K, 131 kPa, Gas | 0.0108
302.85 K, 136 kPa, Gas | 0.01096
302.86 K, 122 kPa, Gas | 0.011
302.87 K, 381 kPa, Liquid | 0.08077
302.88 K, 4074 kPa, Liquid | 0.08317
302.91 K, 62949 kPa, Liquid | 0.1057
302.92 K, 299 kPa, Liquid | 0.08155
302.92 K, 36387 kPa, Liquid | 0.09706
302.92 K, 65445 kPa, Liquid | 0.1067
302.93 K, 41986 kPa, Liquid | 0.09906
302.93 K, 47187 kPa, Liquid | 0.1008
302.95 K, 36224 kPa, Liquid | 0.09698
302.95 K, 56429 kPa, Liquid | 0.1038
302.98 K, 48055 kPa, Liquid | 0.1009
303 K, 48417 kPa, Liquid | 0.101
303.02 K, 25798 kPa, Liquid | 0.09309
303.03 K, 30542 kPa, Liquid | 0.09496
303.04 K, 142 kPa, Gas | 0.01123
303.06 K, 137 kPa, Gas | 0.01133
303.07 K, 121 kPa, Gas | 0.01128
303.07 K, 131 kPa, Gas | 0.01133
303.08 K, 25486 kPa, Liquid | 0.09308
303.09 K, 20509 kPa, Liquid | 0.09124
303.09 K, 41994 kPa, Liquid | 0.09863
303.09 K, 47182 kPa, Liquid | 0.1005
303.12 K, 16450 kPa, Liquid | 0.08937
303.12 K, 36213 kPa, Liquid | 0.09661
303.17 K, 135 kPa, Gas | 0.01096
303.18 K, 122 kPa, Gas | 0.01101
303.18 K, 132 kPa, Gas | 0.0107
303.18 K, 8071 kPa, Liquid | 0.0855
303.2 K, 16008 kPa, Liquid | 0.08894
303.2 K, 25794 kPa, Liquid | 0.0928
303.21 K, 11886 kPa, Liquid | 0.08665
303.21 K, 30558 kPa, Liquid | 0.09462
303.24 K, 7824 kPa, Liquid | 0.08506
303.25 K, 25489 kPa, Liquid | 0.09272
303.27 K, 20510 kPa, Liquid | 0.09093
303.28 K, 7854 kPa, Liquid | 0.08529
303.31 K, 16446 kPa, Liquid | 0.08918
303.31 K, 62940 kPa, Liquid | 0.1059
303.32 K, 65424 kPa, Liquid | 0.1066
303.34 K, 383 kPa, Liquid | 0.08114
303.35 K, 4071 kPa, Liquid | 0.08347
303.36 K, 56409 kPa, Liquid | 0.1043
303.38 K, 8070 kPa, Liquid | 0.08486
303.38 K, 16014 kPa, Liquid | 0.08858
303.39 K, 11885 kPa, Liquid | 0.08675
303.4 K, 295 kPa, Liquid | 0.08173
303.4 K, 48041 kPa, Liquid | 0.1012
303.42 K, 48413 kPa, Liquid | 0.1013
303.44 K, 7814 kPa, Liquid | 0.0847
303.47 K, 7846 kPa, Liquid | 0.0848
303.5 K, 136 kPa, Gas | 0.01133
303.5 K, 62957 kPa, Liquid | 0.1058
303.5 K, 65425 kPa, Liquid | 0.1067
303.51 K, 132 kPa, Gas | 0.01137
303.51 K, 41983 kPa, Liquid | 0.09892
303.51 K, 47179 kPa, Liquid | 0.1008
303.53 K, 122 kPa, Gas | 0.01133
303.54 K, 4064 kPa, Liquid | 0.08281
303.54 K, 56404 kPa, Liquid | 0.1037
303.56 K, 36213 kPa, Liquid | 0.09672
303.59 K, 293 kPa, Liquid | 0.08112
303.6 K, 48039 kPa, Liquid | 0.101
303.61 K, 48415 kPa, Liquid | 0.101
303.71 K, 41980 kPa, Liquid | 0.09862
303.71 K, 47178 kPa, Liquid | 0.1004
303.76 K, 36210 kPa, Liquid | 0.09644
303.97 K, 136 kPa, Gas | 0.01134
304 K, 121 kPa, Gas | 0.01134
304.01 K, 131 kPa, Gas | 0.01133
304.5 K, 135 kPa, Gas | 0.01137
304.51 K, 122 kPa, Gas | 0.01139
304.53 K, 130 kPa, Gas | 0.01127
305.03 K, 135 kPa, Gas | 0.0114
305.05 K, 121 kPa, Gas | 0.0114
305.16 K, 131 kPa, Gas | 0.01092
305.6 K, 134 kPa, Gas | 0.01142
305.62 K, 122 kPa, Gas | 0.01143
305.74 K, 132 kPa, Gas | 0.01105
311.53 K, 157 kPa, Gas | 0.01177
311.84 K, 158 kPa, Gas | 0.01185
311.93 K, 134 kPa, Gas | 0.01187
312.17 K, 165 kPa, Gas | 0.01181
312.19 K, 159 kPa, Gas | 0.01198
312.22 K, 98 kPa, Gas | 0.012
312.23 K, 134 kPa, Gas | 0.01169
312.26 K, 135 kPa, Gas | 0.01202
312.37 K, 191 kPa, Gas | 0.012
312.46 K, 165 kPa, Gas | 0.01175
312.5 K, 133 kPa, Gas | 0.0117
312.53 K, 160 kPa, Gas | 0.01191
312.56 K, 98 kPa, Gas | 0.01197
312.64 K, 135 kPa, Gas | 0.01197
312.67 K, 191 kPa, Gas | 0.01194
312.76 K, 166 kPa, Gas | 0.01173
312.79 K, 131 kPa, Gas | 0.01152
312.81 K, 96 kPa, Gas | 0.01168
312.82 K, 133 kPa, Gas | 0.01159
312.93 K, 97 kPa, Gas | 0.01203
312.94 K, 162 kPa, Gas | 0.01192
312.97 K, 190 kPa, Gas | 0.01196
313.06 K, 134 kPa, Gas | 0.01201
313.06 K, 195 kPa, Gas | 0.01197
313.07 K, 167 kPa, Gas | 0.01173
313.11 K, 96 kPa, Gas | 0.0116
313.11 K, 130 kPa, Gas | 0.0115
313.15 K, 132 kPa, Gas | 0.01155
313.31 K, 97 kPa, Gas | 0.01207
313.35 K, 195 kPa, Gas | 0.01196
313.36 K, 163 kPa, Gas | 0.01197
313.42 K, 96 kPa, Gas | 0.01157
